Assay results published in US8710089B2, “Triazole derivatives as ghrelin analogue ligands of growth hormone secretagogue receptors” (Zentaris GmbH, priority 2005, dated 2014).
Values joined by “and” are separate entries in the source; they are usually repeats but may differ in a detail not shown here. Identical values can stand only once. Non-standard residues stand in square brackets, D forms with d. Residues, ends and D or L forms follow the SMILES beside them. dTrp(2-Me) = Cc1[nH]c2ccccc2c1C[C@@H](N)C(=O)O

Experiments:
human GHS-R 1a = target: T1, human GHS-R 1a (Homo sapiens, UniProt Q92847); assay: GHS-R 1a receptor-ligand binding assay (membrane preparations from transfected LLC PK-1 cells); conditions: displacement of 125I-His9-ghrelin (60 pM); membranes of LLC PK-1 cells transfected with human GHS-R 1a; mean of at least two independent experiments in triplicates
T1 construct: expressed in transfected cells; host or cells: LLC PK-1 porcine renal epithelial cells (ECACC No. 86121112), isolated plasma membranes
T1 sequence (Q92847 whole entry): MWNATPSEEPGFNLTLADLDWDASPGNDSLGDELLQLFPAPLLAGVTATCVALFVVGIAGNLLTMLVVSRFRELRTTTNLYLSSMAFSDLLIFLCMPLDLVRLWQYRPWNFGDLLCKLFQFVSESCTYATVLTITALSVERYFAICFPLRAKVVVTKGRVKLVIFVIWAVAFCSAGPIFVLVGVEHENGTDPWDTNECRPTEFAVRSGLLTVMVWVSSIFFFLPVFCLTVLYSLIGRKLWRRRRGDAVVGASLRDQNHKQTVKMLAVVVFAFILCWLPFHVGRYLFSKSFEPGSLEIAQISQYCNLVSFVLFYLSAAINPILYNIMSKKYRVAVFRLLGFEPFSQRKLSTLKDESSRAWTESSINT
How it was run: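 Membranes from LLC PK-1 cells expressing human GHS-R 1a incubated 60 min at 25 °C in 50 mM Tris pH 7.3, 5 mM MgCl2, 2.5 mM EDTA, bacitracin with 60 pM 125I-ghrelin and competitor; nonspecific binding with 10^-6 M ghrelin; filtration read-out.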

[1] = tested on: GH concentration in the plasma of male rat pups; assay: In vivo GH concentration in the plasma of male rat pups; set-up: species or system rat (Sprague-Dawley); conditions: rat pup plasma
Procedure: IV) Assaying In Vivo GH Concentration in the Plasma of Male Rat Pups
GH plasma concentrations of male rat pubs were assayed to characterize the modulation effect (antagonistic or agonistic) of the compounds of the invention being GHS receptor analogue ligands.
In principle, assaying in vivo GH concentration in rat plasma was performed according to Torsello et al. (Eur. J. Pharmacol. 1998, 360: 123-129).
Male Sprague-Dawley rat pups (Charles River, Calco, Italy) were separated on postnatal day seven from their mothers and randomly redistributed to the dams, so that each one nurtured ten to twelve pups. On postnatal day ten, the pups were again separated from their mothers.
The compounds to be tested were dissolved in solvent [DMSO (0.4% of total volume), distilled water (4% of total volume), brought to the final volume with physiological saline].
One hour after separation from their mothers, the pups were given isovolumetric amounts of the compounds to be tested (160 μg/kg body weight s.c.) at time −10 min and then administered with hexarelin (80 μg/kg body weight s.c.) or solvent at time 0 min before being killed 15 min later by decapitation. Trunk blood was collected, immediately centrifuged and plasma samples were stored at −20° C. until assayed for the determination of GH concentrations.
Plasma GH concentrations were measured using a rat growth hormone enzyme immunoassay kit (SPIbio, France, cat. no. 589601) according to the manufacturer's instructions. Values are expressed in terms of NIDDK rat-GH-RP2 standard (potency 2 IU/mg) as ng/mL of plasma
The limit of detection calculated as the concentration producing 15% displacement of initial tracer was 0.5 ng/ml; intra-assay and inter-assay coefficient of variation are 4% (n=24) and 14% (n=9).
In the following table 3 results obtained for selected compounds of the invention are presented.

[2] = tested on: young-adult male Sprague-Dawley rats; assay: Feeding behavior (food intake) of young-adult male rats; assay type: in vivo, rat (Sprague-Dawley)
Procedure: V) Assaying the Feeding Behavior (Food Intake) of Young-Adult Male Rats
The impact of compounds of the invention being GHS receptor analogue ligands on the feeding behaviour, i.e. food intake, of young-adult male rats was assayed.
In principle, assaying the feeding behavior (food intake) of young-adult male rats was performed according to Torsello et al. (Eur. J. Pharmacol. 1998, 360: 123-129).
For the assay, young-adult male Sprague-Dawley rats (Charles River, Calco, Italy), weighing 200-250 g, were used.
Rats had 1 week of acclimation in individual home cages, and animal room conditions (22±2° C., 65% humidity, artificial light from 08.00 to 20.00 h). The following week, they were daily trained to mimic the experimental procedure. Rats maintained free access to dry pellets and tap water throughout the whole experimental period. At the end of training, rats were administered (around 10.00-11.00 a.m.) subcutaneously with the compounds to be tested (160 μg/kg body weight) and/or hexarelin (80 μg/kg body weight) and/or solvent [DMSO (0.4% of total volume), distilled water (4% of total volume), brought to the final volume with physiological saline].
Hexarelin was used to study the effects of the compounds to be tested on stimulated feeding behavior. Immediately after the injections, the animals were returned to their home cages, which contained a known amount of standard rat chow and ad libitum water. Every hour for the following 6 hours, the remaining food was carefully collected and weighed to the nearest 0.1 g. Food intake was normalized for the body weight of the rats and expressed as grams of food eaten per 100 g body weight of rats.
In the following table 4 results obtained for selected compounds of the invention are presented.

[3] = compound 160 μg/kg s.c. at -10 min + hexarelin 80 μg/kg s.c. at 0 min, killed 15 min later
[4] = compound alone 160 μg/kg body weight s.c. at -10 min, solvent at 0 min, killed 15 min later
[5] = compound 160 μg/kg s.c. + hexarelin 80 μg/kg s.c.
[6] = compound alone, 160 μg/kg body weight s.c.

Compound COc1ccc(Cn2c(CCc3c[nH]c4ccccc34)nnc2[C@@H](Cc2c[nH]c3ccccc23)NC(=O)C2CCNCC2)c(OC)c1 [compound 31, (R)—N-(1-(5-(2-(1H-indol-3-yl)ethyl)-4-(2,4-dimethoxybenzyl)-4H-1,2,4-triazol-3-yl)-2-(1H-indol-3-yl)ethyl)piperidine-4-carboxamide] has an IC50 (human GHS-R 1a) of 0.5 nM, a GH concentration [1, 3] of 103.528 ± 14.094 ng/mL and a GH concentration [1, 4] of 119.937 ± 33.054 ng/mL.
With COc1ccc(Cn2c(CCc3ccccc3)nnc2[C@@H](Cc2c[nH]c3ccccc23)NC(=O)CN)cc1 [compound 50, (R)—N-(1-(4-(4-methoxybenzyl)-5-phenethyl-4H-1,2,4-triazol-3-yl)-2-(1H-indol-3-yl)ethyl)-2-aminoacetamide] the GH concentration [1, 3] was 164.459 ± 4.443 ng/mL, the GH concentration [1, 4] was 9.852 ± 1.040 ng/mL and the “Cumulative food intake (after 2 hours)” value [2, 5] was 0.003 ± 0.002 g food/100 g body weight. For the same compound, the “Cumulative food intake (after 6 hours)” value [2, 5] was 0.017 ± 0.001 g food/100 g body weight, the “Cumulative food intake (after 2 hours)” value [2, 6] was 0.012 ± 0.008 g food/100 g body weight and the “Cumulative food intake (after 6 hours)” value [2, 6] was 0.039 ± 0.011 g food/100 g body weight.
Compound COc1ccc(Cn2c(CCc3c[nH]c4ccccc34)nnc2[C@@H](Cc2c[nH]c3ccccc23)NC(=O)c2cnccn2)c(OC)c1 [compound 71, (R)—N-(1-(5-(2-(1H-indol-3-yl)ethyl)-4-(2,4-dimethoxybenzyl)-4H-1,2,4-triazol-3-yl)-2-(1H-indol-3-yl)ethyl)pyrazine-2-carboxamide] has an IC50 (human GHS-R 1a) of 19 nM, a GH concentration [1, 3] of 173.611 ± 18.444 ng/mL and a GH concentration [1, 4] of 15.326 ± 1.355 ng/mL. For the same compound, the “Cumulative food intake (after 2 hours)” value [2, 5] was 0.117 ± 0.074 g food/100 g body weight, the “Cumulative food intake (after 6 hours)” value [2, 5] was 0.20 ± 0.01 g food/100 g body weight and the “Cumulative food intake (after 2 hours)” value [2, 6] was 0.522 ± 0.283 g food/100 g body weight. For the same compound, the “Cumulative food intake (after 6 hours)” value [2, 6] was 0.53 ± 0.28 g food/100 g body weight.
Compound COc1ccc(Cn2c(CCc3ccccc3)nnc2[C@@H](Cc2c[nH]c3ccccc23)NC(=O)[C@@H]2CCCCN2)cc1 [compound 48, (S)—N—((R)-1-(4-(4-methoxybenzyl)-5-phenethyl-4H-1,2,4-triazol-3-yl)-2-(1H-indol-3-yl)ethyl)piperidine-2-carboxamide] has a GH concentration [1, 3] of 145.946 ± 12.159 ng/mL and a GH concentration [1, 4] of 6.096 ± 2.091 ng/mL.
With COc1ccc(Cn2c(CCc3c[nH]c4ccccc34)nnc2[C@@H](Cc2c[nH]c3ccccc23)NC(=O)c2ccccc2N)c(OC)c1 [compound 38, (R)—N-(1-(5-(2-(1H-indol-3-yl)ethyl)-4-(2,4-dimethoxybenzyl)-4H-1,2,4-triazol-3-yl)-2-(1H-indol-3-yl)ethyl)-2-aminobenzamide] the IC50 (human GHS-R 1a) was 112 nM, the “Cumulative food intake (after 2 hours)” value [2, 5] was 0.002 ± 0.002 g food/100 g body weight and the “Cumulative food intake (after 6 hours)” value [2, 5] was 0.478 ± 0.141 g food/100 g body weight. For the same compound, the “Cumulative food intake (after 2 hours)” value [2, 6] was 0.001 ± 0 g food/100 g body weight and the “Cumulative food intake (after 6 hours)” value [2, 6] was 0.076 ± 0.096 g food/100 g body weight.
Compound COc1ccc(Cn2c(CCc3c[nH]c4ccccc34)nnc2[C@H](N)Cc2c[nH]c3ccccc23)c(OC)c1 [compound 74, (R)-1-(5-(2-(1H-indol-3-yl)ethyl)-4-(2,4-dimethoxybenzyl)-4H-1,2,4-triazol-3-yl)-2-(1H-indol-3-yl)ethanamine] has a GH concentration [1, 3] of 194.564 ± 7.658 ng/mL and a GH concentration [1, 4] of 10.571 ± 0.791 ng/mL.
In the case of CC(C)(N)C(=O)N[C@H](Cc1c[nH]c2ccccc12)c1nnc(Cc2ccccc2)n1Cc1ccccn1 [compound 39, (R)—N-(1-(5-benzyl-4-(pyridin-2-ylmethyl)-4H-1,2,4-triazol-3-yl)-2-(1H-indol-3-yl)ethyl)-2-amino-2-methylpropanamide], the GH concentration [1, 3] is reported as 82.481 ± 11.530 ng/mL and 82.481 ± 11.53 ng/mL and the GH concentration [1, 4] is reported as 5.509 ± 1.950 ng/mL and 5.509 ± 1.95 ng/mL.
With CC(C)(N)C(=O)N[C@H](Cc1c[nH]c2ccccc12)c1nnc(CCc2c[nH]c3ccccc23)n1CCc1c[nH]c2ccccc12 [compound 17, (R)—N-(1-(4,5-bis(2-(1H-indol-3-yl)ethyl)-4H-1,2,4-triazol-3-yl)-2-(1H-indol-3-yl)ethyl)-2-amino-2-methylpropanamide] the IC50 (human GHS-R 1a) was 156 nM, the “Cumulative food intake (after 2 hours)” value [2, 5] was 0.0501 ± 0.049 g food/100 g body weight and the “Cumulative food intake (after 6 hours)” value [2, 5] was 0.846 ± 0.411 g food/100 g body weight. For the same compound, the “Cumulative food intake (after 2 hours)” value [2, 6] was 0.001 ± 0.001 g food/100 g body weight and the “Cumulative food intake (after 6 hours)” value [2, 6] was 0.2661 ± 0.166 g food/100 g body weight.
COc1ccc(Cn2c(CCc3c[nH]c4ccccc34)nnc2[C@@H](Cc2c[nH]c3ccccc23)NC(=O)c2ccccn2)cc1 [compound 80, (R)—N-(1-(5-(2-(1H-indol-3-yl)ethyl)-4-(4-methoxybenzyl)-4H-1,2,4-triazol-3-yl)-2-(1H-indol-3-yl)ethyl)picolinamide] was tested, and the IC50 (human GHS-R 1a) was 1.9 nM, the “Cumulative food intake (after 2 hours)” value [2, 5] was 0.475 ± 0.196 g food/100 g body weight and the “Cumulative food intake (after 6 hours)” value [2, 5] was 0.733 ± 0.238 g food/100 g body weight. For the same compound, the “Cumulative food intake (after 2 hours)” value [2, 6] was 0.145 ± 0.143 g food/100 g body weight and the “Cumulative food intake (after 6 hours)” value [2, 6] was 0.346 ± 0.159 g food/100 g body weight.
For Cc1[nH]c2ccccc2c1C[C@@H](NC(=O)[C@@H](N)Cc1cnc[nH]1)C(=O)N[C@@H](C)C(=O)N[C@@H](Cc1c[nH]c2ccccc12)C(=O)N[C@H](Cc1ccccc1)C(=O)N[C@@H](CCCCN)C(N)=O [hexarelin, Hexarelin, reference compound] (H-H[dTrp(2-Me)]AW[dF]K-NH2), the GH concentration ([1]; hexarelin alone 80 μg/kg body weight s.c.) was 170.101 ± 13.226 ng/mL and 253.820 ± 12.268 ng/mL and 162.839 ± 21.095 ng/mL.
CC(C)(N)C(=O)N[C@H](Cc1c[nH]c2ccccc12)c1nnc(CCCc2c[nH]c3ccccc23)n1CCc1c[nH]c2ccccc12 [compound 24, (R)—N-(1-(4-(2-(1H-indol-3-yl)ethyl)-5-(3-(1H-indol-3-yl)propyl)-4H-1,2,4-triazol-3-yl)-2-(1H-indol-3-yl)ethyl)-2-amino-2-methylpropanamide] was tested, and the IC50 (human GHS-R 1a) was 29 nM, the “Cumulative food intake (after 2 hours)” value [2, 5] was 0.586 ± 0.252 g food/100 g body weight and the “Cumulative food intake (after 6 hours)” value [2, 5] was 0.912 ± 0.359 g food/100 g body weight. The “Cumulative food intake (after 2 hours)” value [2, 6] was 0.008 ± 0.008 g food/100 g body weight and the “Cumulative food intake (after 6 hours)” value [2, 6] was 0.215 ± 0.200 g food/100 g body weight.
For COc1ccc(Cn2c(Cc3ccccc3)nnc2[C@@H](Cc2c[nH]c3ccccc23)NC(=O)C(C)(C)N)cc1 [compound 13, (R)—N-(1-(4-(4-methoxybenzyl)-5-benzyl-4H-1,2,4-triazol-3-yl)-2-(1H-indol-3-yl)ethyl)-2-amino-2-methylpropanamide], the IC50 (human GHS-R 1a) was 138 nM, the “Cumulative food intake (after 2 hours)” value [2, 5] was 0.731 ± 0.318 g food/100 g body weight and the “Cumulative food intake (after 6 hours)” value [2, 5] was 0.792 ± 0.337 g food/100 g body weight. For the same compound, the “Cumulative food intake (after 2 hours)” value [2, 6] was 0.057 ± 0.057 g food/100 g body weight and the “Cumulative food intake (after 6 hours)” value [2, 6] was 0.167 ± 0.167 g food/100 g body weight.
